Experimental data from patent US9738634B2, “Heterocyclic amide compound and herbicide” (SYNGENTA PARTICIPATIONS AG, priority 2013, dated 2017).

Columns and labels:
Format in all cases: in vivo
[1] = system: Italian ryegrass; assay: Test Example 4: weedkilling efficacy by foliar treatment; I: Italian ryegrass; conditions: treatment dosage 315 g/ha
In short: (§1)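 Seeds are spot-sown into sterilized diluvial soil and covered with about 1.5 cm of soil. After 14 days' greenhouse growth at 25 to 30° C, plants are sprayed on stems and leaves with diluted emulsion at the stated g/ha rate, then scored at 3 weeks.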

[2] = system: barnyard grass; assay: Test Example 2: weedkilling efficacy, growth period weed treatment in the submerged state; A: barnyard grass; conditions: treatment dosage 252 g/ha
In short: (§2)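 First, alluvial soil in pots is flooded to 4 cm and mixed seed is sown. Next, plants grow in a greenhouse at 25 to 30° C until the 1-2 leaf stage. Then diluted emulsion is applied onto the water surface at the given g/ha rate, and injury is assessed after 3 weeks.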

[3] = system: corn; assay: Test Example 4: foliar treatment, effect on crop; c: corn; conditions: treatment dosage 315 g/ha
In short: as §1

[4] = system: black-grass; assay: Test Example 4: weedkilling efficacy by foliar treatment; H: black-grass; conditions: treatment dosage 315 g/ha
In short: as §1

[5] = system: bulrush; assay: Test Example 2: weedkilling efficacy, growth period weed treatment in the submerged state; B: bulrush; conditions: treatment dosage 252 g/ha
In short: as §2

[6] = system: fig-leafed goosefoot; assay: Test Example 4: weedkilling efficacy by foliar treatment; M: fig-leafed goosefoot; conditions: treatment dosage 315 g/ha
In short: as §1

[7] = system: Italian ryegrass; assay: Test Example 3: weedkilling efficacy through soil treatment; I: Italian ryegrass; conditions: treatment dosage 315 g/ha
In short: (§3)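 Crop and weed responses were judged three weeks after a uniform surface spray of the water-diluted emulsion at the given g/ha rate. Seeds sat beneath about 1.5 cm of sterilized diluvial soil, and boxes stood in a greenhouse at 25 to 30° C.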

[8] = system: crabgrass; assay: Test Example 4: weedkilling efficacy by foliar treatment; D: crabgrass; conditions: treatment dosage 315 g/ha
In short: as §1

[9] = system: fig-leafed goosefoot; assay: Test Example 3: weedkilling efficacy through soil treatment; M: fig-leafed goosefoot; conditions: treatment dosage 315 g/ha
In short: as §3

[10] = system: green foxtail; assay: Test Example 4: weedkilling efficacy by foliar treatment; E: green foxtail; conditions: treatment dosage 315 g/ha
In short: as §1

[11] = system: directly sown rice; assay: Test Example 4: foliar treatment, effect on crop; b: directly sown rice; conditions: treatment dosage 315 g/ha
In short: as §1

[12] = system: directly sown rice; assay: Test Example 3: soil treatment, effect on crop; b: directly sown rice; conditions: treatment dosage 315 g/ha
In short: as §3

[13] = system: corn; assay: Test Example 3: soil treatment, effect on crop; c: corn; conditions: treatment dosage 315 g/ha
In short: as §3

[14] = system: beet; assay: Test Example 4: foliar treatment, effect on crop; f: beet; conditions: treatment dosage 315 g/ha
In short: as §1

[15] = system: bulrush; assay: Test Example 1: weedkilling efficacy, preemergent weed treatment in the submerged state; B: bulrush; conditions: treatment dosage 252 g/ha
In short: (§4)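 Alluvial soil in Wagner pots flooded to 4 cm; barnyard grass, bulrush and oval-leafed pondweed seeds sown, then 2.5-leaf rice seedlings transplanted. Same day, emulsified compound diluted in water to set g/ha dosages and applied to water surface; greenhouse 25–30 °C, effect scored by criteria after 3 weeks.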

[16] = system: oval-leafed pondweed; assay: Test Example 1: weedkilling efficacy, preemergent weed treatment in the submerged state; C: oval-leafed pondweed; conditions: treatment dosage 252 g/ha
In short: as §4

[17] = system: chickweed; assay: Test Example 3: weedkilling efficacy through soil treatment; N: chickweed; conditions: treatment dosage 315 g/ha
In short: as §3

[18] = system: wheat; assay: Test Example 4: foliar treatment, effect on crop; e: wheat; conditions: treatment dosage 315 g/ha
In short: as §1

[19] = system: black-grass; assay: Test Example 3: weedkilling efficacy through soil treatment; H: black-grass; conditions: treatment dosage 315 g/ha
In short: as §3

[20] = system: birds-eye speedwell; assay: Test Example 3: weedkilling efficacy through soil treatment; p: birds-eye speedwell; conditions: treatment dosage 315 g/ha
In short: as §3

[21] = system: Indian mallow; assay: Test Example 4: weedkilling efficacy by foliar treatment; K: Indian mallow; conditions: treatment dosage 315 g/ha
In short: as §1

[22] = system: barnyard grass; assay: Test Example 1: weedkilling efficacy, preemergent weed treatment in the submerged state; A: barnyard grass; conditions: treatment dosage 252 g/ha
In short: as §4

[23] = system: birds-eye speedwell; assay: Test Example 4: weedkilling efficacy by foliar treatment; p: birds-eye speedwell; conditions: treatment dosage 315 g/ha
In short: as §1

[24] = system: wheat; assay: Test Example 3: soil treatment, effect on crop; e: wheat; conditions: treatment dosage 315 g/ha
In short: as §3

[25] = system: redroot pigweed; assay: Test Example 4: weedkilling efficacy by foliar treatment; L: redroot pigweed; conditions: treatment dosage 315 g/ha
In short: as §1

[26] = system: oval-leafed pondweed; assay: Test Example 2: weedkilling efficacy, growth period weed treatment in the submerged state; C: oval-leafed pondweed; conditions: treatment dosage 252 g/ha
In short: as §2

[27] = system: green foxtail; assay: Test Example 3: weedkilling efficacy through soil treatment; E: green foxtail; conditions: treatment dosage 315 g/ha
In short: as §3

[28] = system: beet; assay: Test Example 3: soil treatment, effect on crop; f: beet; conditions: treatment dosage 315 g/ha
In short: as §3

[29] = system: catchweed; assay: Test Example 4: weedkilling efficacy by foliar treatment; O: catchweed; conditions: treatment dosage 315 g/ha
In short: as §1

[30] = system: redroot pigweed; assay: Test Example 3: weedkilling efficacy through soil treatment; L: redroot pigweed; conditions: treatment dosage 315 g/ha
In short: as §3

[31] = system: Indian mallow; assay: Test Example 3: weedkilling efficacy through soil treatment; K: Indian mallow; conditions: treatment dosage 315 g/ha
In short: as §3

[32] = system: soybean; assay: Test Example 4: foliar treatment, effect on crop; d: soybean; conditions: treatment dosage 315 g/ha
In short: as §1

[33] = system: crabgrass; assay: Test Example 3: weedkilling efficacy through soil treatment; D: crabgrass; conditions: treatment dosage 315 g/ha
In short: as §3

[34] = system: chickweed; assay: Test Example 4: weedkilling efficacy by foliar treatment; N: chickweed; conditions: treatment dosage 315 g/ha
In short: as §1

[35] = system: soybean; assay: Test Example 3: soil treatment, effect on crop; d: soybean; conditions: treatment dosage 315 g/ha
In short: as §3

[36] = system: catchweed; assay: Test Example 3: weedkilling efficacy through soil treatment; O: catchweed; conditions: treatment dosage 315 g/ha
Excerpt: Weedkilling Efficacy Test Through Soil Treatment
Sterilized diluvial soil was introduced into 21 cm long, 13 cm wide, 7 cm deep plastic boxes, and seeds of crabgrass, green foxtail, barnyard grass, wild oat, black-grass, Italian ryegrass, common wind-grass, Indian mallow, redroot pigweed, fig-leafed goosefoot, chickweed, catchweed, birds-eye speedwell, corn, soybean, rice, wheat, beet and rapeseed were each spot-sown, and covered with about 1.5 cm of soil. Next, emulsions of compounds of the present invention prepared according to compounding example 2 were diluted with water to give the specified dosages, and applied uniformly onto the soil surface with a small sprayer. The plants were grown by placing the plastic boxes in a greenhouse at 25 to 30° C., and 3 weeks after the pesticide treatment the effect on each type of plant was investigated on the basis of the assessment criteria of test example 1.
A: barnyard grass, B: bulrush, C: oval-leafed pondweed, D: crabgrass, E: green foxtail, F: barnyard grass, G: wild oat, H: black-grass, I: Italian ryegrass, J: common wind-grass, K: Indian mallow, L: redroot pigweed, M: fig-leafed goosefoot, N: chickweed, O: catchweed, p: birds-eye speedwell, a: transplanted rice, b: directly sown rice, c: corn, d: soybean, e: wheat, f: beet, g: rapeseed
Further, pesticide dosage (g/ha) indicates the concentration regulated such that treatment was with only the stated number of grams (g), when calculated per hectare (ha).

[37] = system: transplanted rice; assay: Test Example 1: preemergent weed treatment in the submerged state, effect on crop; a: transplanted rice; conditions: treatment dosage 252 g/ha
In short: as §4

Compound: CC1=C(c2ccccc2)C(=O)N(C(C)(C)C(=O)Nc2nc(C)ns2)CO1 [B-1-13]
- I (Italian ryegrass) weedkilling efficacy grade [1]: 5 (weed kill ratio 90% or more, (practically complete withering))
- A (barnyard grass) weedkilling efficacy grade [2]: 5 (weed kill ratio 90% or more, (practically complete withering))
- c (corn) effect on crop grade [3]: 2 (weed kill ratio 20% or more, less than 40%)
- H (black-grass) weedkilling efficacy grade [4]: 5 (weed kill ratio 90% or more, (practically complete withering))
- B (bulrush) weedkilling efficacy grade [5]: 5 (weed kill ratio 90% or more, (practically complete withering))
- M (fig-leafed goosefoot) weedkilling efficacy grade [6]: 4 (weed kill ratio 70% or more, less than 90%)
- I (Italian ryegrass) weedkilling efficacy grade [7]: 5 (weed kill ratio 90% or more, (practically complete withering))
- D (crabgrass) weedkilling efficacy grade [8]: 5 (weed kill ratio 90% or more, (practically complete withering))
- M (fig-leafed goosefoot) weedkilling efficacy grade [9]: 4 (weed kill ratio 70% or more, less than 90%)
- E (green foxtail) weedkilling efficacy grade [10]: 5 (weed kill ratio 90% or more, (practically complete withering))
- b (directly sown rice) effect on crop grade [11]: 5 (weed kill ratio 90% or more, (practically complete withering))
- b (directly sown rice) effect on crop grade [12]: 5 (weed kill ratio 90% or more, (practically complete withering))
- c (corn) effect on crop grade [13]: 3 (weed kill ratio 40% or more, less than 70%)
- f (beet) effect on crop grade [14]: 3 (weed kill ratio 40% or more, less than 70%)
- B (bulrush) weedkilling efficacy grade [15]: 5 (weed kill ratio 90% or more, (practically complete withering))
- C (oval-leafed pondweed) weedkilling efficacy grade [16]: 5 (weed kill ratio 90% or more, (practically complete withering))
- N (chickweed) weedkilling efficacy grade [17]: 4 (weed kill ratio 70% or more, less than 90%)
- e (wheat) effect on crop grade [18]: 4 (weed kill ratio 70% or more, less than 90%)
- H (black-grass) weedkilling efficacy grade [19]: 5 (weed kill ratio 90% or more, (practically complete withering))
- P (birds-eye speedwell) weedkilling efficacy grade [20]: 5 (weed kill ratio 90% or more, (practically complete withering))
- K (Indian mallow) weedkilling efficacy grade [21]: 5 (weed kill ratio 90% or more, (practically complete withering))
- A (barnyard grass) weedkilling efficacy grade [22]: 5 (weed kill ratio 90% or more, (practically complete withering))
- P (birds-eye speedwell) weedkilling efficacy grade [23]: 4 (weed kill ratio 70% or more, less than 90%)
- e (wheat) effect on crop grade [24]: 5 (weed kill ratio 90% or more, (practically complete withering))
- L (redroot pigweed) weedkilling efficacy grade [25]: 5 (weed kill ratio 90% or more, (practically complete withering))
- C (oval-leafed pondweed) weedkilling efficacy grade [26]: 5 (weed kill ratio 90% or more, (practically complete withering))
- E (green foxtail) weedkilling efficacy grade [27]: 5 (weed kill ratio 90% or more, (practically complete withering))
- f (beet) effect on crop grade [28]: 5 (weed kill ratio 90% or more, (practically complete withering))
- O (catchweed) weedkilling efficacy grade [29]: 5 (weed kill ratio 90% or more, (practically complete withering))
- L (redroot pigweed) weedkilling efficacy grade [30]: 4 (weed kill ratio 70% or more, less than 90%)
- K (Indian mallow) weedkilling efficacy grade [31]: 2 (weed kill ratio 20% or more, less than 40%)
- d (soybean) effect on crop grade [32]: 5 (weed kill ratio 90% or more, (practically complete withering))
- D (crabgrass) weedkilling efficacy grade [33]: 5 (weed kill ratio 90% or more, (practically complete withering))
- N (chickweed) weedkilling efficacy grade [34]: 4 (weed kill ratio 70% or more, less than 90%)
- d (soybean) effect on crop grade [35]: 4 (weed kill ratio 70% or more, less than 90%)
- O (catchweed) weedkilling efficacy grade [36]: 5 (weed kill ratio 90% or more, (practically complete withering))
- a (transplanted rice) effect on crop grade [37]: 0 (weed kill ratio 5% or less (practically no effect))
